Assay results from patent US9238626B2 (priority 2012, dated 2016).
Structures can show the parent of a compound that is named as a salt. Where two headings read alike, the source gives them in different places.

Tests used:
human serum BChE = human serum BChE (Homo sapiens (Human), UniProt P06276); experiment: BChE inhibition assay (Ellman); format: biochemical
Procedure: BChE inhibitory activity determinations were carried out similarly by the method of Ellman et al., using 0.02 unit/mL of human serum BChE and 300 μM butyrylthiocholine, instead of AChE and acetylthiocholine, in a final volume of 300 μL.
(§1) Results are expressed as mean±S.E.M. of at least 4 experiments performed in duplicate. DTNB, acetylthiocholine, butyrylthiocholine, and enzymes were purchased from Sigma.

β-Secretase (BACE-1) = β-Secretase (BACE-1) (Homo sapiens (Human), UniProt P56817); experiment: β-Secretase (BACE-1) inhibition assay; format: biochemical
Sequence of β-Secretase (BACE-1) (P56817 46-501): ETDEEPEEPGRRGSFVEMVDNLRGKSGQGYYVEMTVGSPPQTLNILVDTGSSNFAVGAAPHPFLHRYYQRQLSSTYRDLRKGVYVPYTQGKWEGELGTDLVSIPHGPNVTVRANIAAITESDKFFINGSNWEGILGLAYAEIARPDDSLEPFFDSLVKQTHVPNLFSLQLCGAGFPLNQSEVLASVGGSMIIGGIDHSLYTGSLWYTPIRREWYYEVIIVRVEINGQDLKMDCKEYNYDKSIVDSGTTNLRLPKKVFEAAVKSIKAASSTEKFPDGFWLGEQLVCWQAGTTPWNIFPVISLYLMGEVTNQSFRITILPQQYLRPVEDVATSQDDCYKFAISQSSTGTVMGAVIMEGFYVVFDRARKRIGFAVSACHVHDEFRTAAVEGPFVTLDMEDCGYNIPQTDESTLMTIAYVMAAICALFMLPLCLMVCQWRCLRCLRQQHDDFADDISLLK
Procedure: β-Secretase (BACE-1, Sigma) inhibition studies were performed by employing a peptide mimicking APP sequence as substrate (methoxycoumarin-[…]dinitrophenyl, M-2420, Bachem). The following procedure was employed: 5 μL of test compound (or DMSO, if preparing a control well) were pre-incubated with 175 μL of the enzyme (in 20 mM sodium acetate containing CHAPS 0.1% w/v) for 1 h at room temperature. The substrate (3 μM, final concentration) was then added and left to react for 15 min. The fluorescence signal was read at λem=405 nm (λexc=320 nm). […] The fluorescence intensities with and without inhibitor were compared and the percent inhibition due to the presence of test compounds was calculated. The background signal was measured in control wells containing all the reagents, except BACE-1 and subtracted. […] Inhibition curves were obtained by plotting the % inhibition versus the logarithm of inhibitor concentration in the assay sample. The linear regression parameters were determined and the IC50 extrapolated (GraphPad Prism 4.0, GraphPad Software Inc.).

[1] = molecular target: Electrophorus electricus (ee) AChE (Electrophorus electricus (Electric eel) (Gymnotus electricus), UniProt O42275); experiment: AChE inhibition assay (Ellman), eeAChE; format: biochemical
Sequence of Electrophorus electricus (ee) AChE (O42275 whole entry, looked up): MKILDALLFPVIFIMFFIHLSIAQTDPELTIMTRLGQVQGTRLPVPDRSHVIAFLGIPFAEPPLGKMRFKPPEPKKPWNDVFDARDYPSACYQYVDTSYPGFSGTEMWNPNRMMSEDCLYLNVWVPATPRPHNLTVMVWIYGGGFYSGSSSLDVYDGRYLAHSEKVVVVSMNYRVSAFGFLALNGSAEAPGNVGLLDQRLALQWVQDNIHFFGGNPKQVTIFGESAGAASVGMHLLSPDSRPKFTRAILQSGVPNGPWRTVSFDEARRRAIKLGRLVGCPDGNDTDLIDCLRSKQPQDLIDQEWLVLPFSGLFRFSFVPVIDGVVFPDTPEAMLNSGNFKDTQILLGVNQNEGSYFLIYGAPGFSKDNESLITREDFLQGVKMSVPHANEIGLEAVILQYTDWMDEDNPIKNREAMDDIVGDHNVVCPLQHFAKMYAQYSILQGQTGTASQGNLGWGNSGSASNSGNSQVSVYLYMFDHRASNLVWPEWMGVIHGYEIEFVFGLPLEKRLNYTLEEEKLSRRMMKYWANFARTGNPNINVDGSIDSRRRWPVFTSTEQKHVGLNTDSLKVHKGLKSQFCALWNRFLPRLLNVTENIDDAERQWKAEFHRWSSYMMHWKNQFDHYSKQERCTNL
Procedure: AChE inhibitory activity of compounds (Ia)-(Ie) and (−)-(Ib) and (+)-(Ib) was evaluated spectrophotometrically at 25° C. by the method of Ellman et al., using recombinant human AChE (hAChE) and Electrophorus electricus (ee) AChE and acetylthiocholine iodide as substrate (cf. G. L. Ellman et al., “New and Rapid Colorimetric Determination of Acetylcholinesterase Activity” Biochem. Pharmacol. 1961, vol. 7, pp. 88-95). For eeAChE inhibitory activity determination, the reaction took place in a final volume of 300 μL of 0.1 M phosphate-buffered solution pH 8.0, containing 0.03 unit/mL of ee AChE and 333 μM 5,5′-dithiobis(2-nitrobenzoic) acid (DTNB) solution used to produce the yellow anion of 5-thio-2-nitrobenzoic acid. Inhibition curves were performed in duplicates using at least 10 increasing concentrations of inhibitor and preincubating at 37° C. for 20 min. One duplicate sample without inhibitor was always present to yield 100% of AChE activity. Then, substrate acetylthiocholine (450 μM) was added and the reaction was developed at 37° C. for 5 min. The color production was measured at 414 nm.
as §1

[2] = test system: human recombinant AChE-induced Aβ1-40 aggregation; experiment: AChE-induced Aβ1-40 aggregation inhibition assay (thioflavin T); details: inhibitor 100 μM
Procedure: Aβ1-40, supplied as trifluoroacetate salt, was purchased from Bachem AG (Germany). Aβ1-40 (2 mg mL^−1) was dissolved in HFIP, lyophilized, and then resolubilized in DMSO to get a 2.3 mM Aβ1-40 solution. 1 mM Solutions of tested inhibitors were prepared by dissolution in MeOH.
Aliquots of 2 μL Aβ1-40 peptide were incubated for 24 h at room temperature in 0.215 M sodium phosphate buffer (pH 8.0) at a final concentration of 230 μM. […] The final volume of each vial was 20 μL. Each assay was run in duplicate. To quantify amyloid fibril formation, the thioflavin T fluorescence method was then applied (cf. H. Naiki et al., “Kinetic Analysis of Amyloid Fibril Polymerization in Vitro”, Lab. Invest. 1991, vol. 65, pp. 104-110). The fluorescence intensities due to β-sheet conformation were monitored for 300 s at λem=490 nm (λexc=446 nm). The percent inhibition of the AChE-induced aggregation due to the presence of the tested compound was calculated by the following expression: 100−(IFi/IFo×100) where IFi and IFe are the fluorescence intensities obtained for Aβ plus AChE in the presence and in the absence of inhibitor, respectively, minus the fluorescence intensities due to the respective blanks.

Aβ1-42 = Aβ1-42 (Homo sapiens, UniProt P05067); experiment: Aβ1-42 self-aggregation inhibition assay (thioflavin T); format: biochemical; details: inhibitor 10 μM, [Aβ]/[I]=5/1
Procedure: As reported in a previously published protocol (cf. M. Bartolini et al., “Insight into the Kinetic of Amyloid Beta (1-42) Peptide Self-Aggregation: Elucidation of Inhibitors' Mechanism of Action. ChemBioChem 2007, vol. 8, pp. 2152-2161), HFIP pretreated Aβ1-42 samples (Bachem AG, Switzerland) were solubilized with a CH3CN/0.3 mM Na2CO3250 mM NaOH (48.4:48.4:3.2) mixture to obtain a 500 μM solution. Experiments were performed by incubating the peptide in 10 mM phosphate buffer (pH=8.0) containing 10 mM NaCl, at 30° C. for 24 h (final Aβ concentration 50 μM) with and without inhibitor (10 μM, Aβ/inhibitor=5/1). Blanks containing the tested inhibitors were also prepared and tested.

Sequence of human serum BChE (P06276 29-602): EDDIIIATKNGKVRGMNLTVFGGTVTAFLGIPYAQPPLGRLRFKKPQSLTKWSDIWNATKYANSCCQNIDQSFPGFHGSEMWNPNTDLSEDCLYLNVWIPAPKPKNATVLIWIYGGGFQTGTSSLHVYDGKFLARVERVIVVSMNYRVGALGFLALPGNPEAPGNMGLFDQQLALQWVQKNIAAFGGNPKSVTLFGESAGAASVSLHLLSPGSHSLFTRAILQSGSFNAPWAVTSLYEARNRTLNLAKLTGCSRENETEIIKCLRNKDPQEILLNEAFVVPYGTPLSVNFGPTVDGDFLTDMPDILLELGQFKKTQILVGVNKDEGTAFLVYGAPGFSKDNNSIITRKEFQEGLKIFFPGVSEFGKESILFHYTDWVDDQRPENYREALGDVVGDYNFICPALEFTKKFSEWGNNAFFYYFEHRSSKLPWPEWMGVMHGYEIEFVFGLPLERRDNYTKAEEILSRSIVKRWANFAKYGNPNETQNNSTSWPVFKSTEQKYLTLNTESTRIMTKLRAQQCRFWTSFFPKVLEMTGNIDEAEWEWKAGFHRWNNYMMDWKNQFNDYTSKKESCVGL

Compound	IC50 (human serum BChE) [nM]	IC50 (β-Secretase (BACE-1)) [nM]	IC50 [1] [nM]	AChE-induced Aβ1-40 aggregation (%) [2] [%]	Aβ1-42 self-induced aggregation (%) (Aβ1-42)	IC50 ([1]; read-out: IC50 eeAChE) [nM]	IC50 (human serum BChE; read-out: IC50 hBChE) [nM]	IC50 (β-Secretase (BACE-1); read-out: BACE-1 IC50) [nM]	BACE-1 % inhibition at 5 μM (β-Secretase (BACE-1); 5 μM)
CC1=CC2Cc3nc4cc(Cl)ccc4c(NCCCCCCCCNC(=O)c4cc(O)c5c(c4)C(=O)c4cccc(O)c4C5=O)c3C(C1)C2 (racemic) [(±)-(Ia)•HCl, (±)-N-{8-[(3-chloro-6,7,10,11-tetrahydro-9-methyl-7,11-methanocycloocta[b]quinolin-12-yl)amino]octyl}-9,10-dihydro-4,5-dihydroxy-9,10-dioxoanthracene-2-carboxamide]	350 ± 17	980 ± 200	88.6 ± 6.7	44.7 ± 8.4	33.1 ± 5.4	–	–	–	–
CC1=CC2Cc3nc4cc(Cl)ccc4c(NCCCCCCCCCNC(=O)c4cc(O)c5c(c4)C(=O)c4cccc(O)c4C5=O)c3C(C1)C2 (racemic) [(±)-(Ib)•HCl, (±)-N-{9-[(3-chloro-6,7,10,11-tetrahydro-9-methyl-7,11-methanocycloocta[b]quinolin-12-yl)amino]nonyl}-9,10-dihydro-4,5-dihydroxy-9,10-dioxoanthracene-2-carboxamide]	–	120 ± 100	32.6 ± 1.7	48.7 ± 8.4	38.0 ± 4.6	–	–	–	–
CC1=CC2Cc3nc4cc(Cl)ccc4c(NCCCCCCCCCCNC(=O)c4cc(O)c5c(c4)C(=O)c4cccc(O)c4C5=O)c3C(C1)C2 (racemic) [(±)-(Ic)•HCl, (±)-N-{10-[(3-chloro-6,7,10,11-tetrahydro-9-methyl-7,11-methanocycloocta[b]quinolin-12-yl)amino]decyl}-9,10-dihydro-4,5-dihydroxy-9,10-dioxoanthracene-2-carboxamide]	1100 ± 40	1190 ± 200	46.7 ± 2.4	29.2 ± 2.4	40.9 ± 4.4	–	–	–	–
CC1=CC2Cc3nc4cc(Cl)ccc4c(NCCCCCCCCCCCNC(=O)c4cc(O)c5c(c4)C(=O)c4cccc(O)c4C5=O)c3C(C1)C2 (racemic) [(±)-(Id)•HCl, (±)-N-{11-[(3-chloro-6,7,10,11-tetrahydro-9-methyl-7,11-methanocycloocta[b]quinolin-12-yl)amino]undecyl}-9,10-dihydro-4,5-dihydroxy-9,10-dioxoanthracene-2-carboxamide]	645 ± 67	1200 ± 100	–	38.2 ± 2.6	35.3 ± 4.0	16.3 ± 2.3	–	–	–
CC1=CC2Cc3nc4cc(Cl)ccc4c(NCc4ccc(CNC(=O)c5cc(O)c6c(c5)C(=O)c5cccc(O)c5C6=O)cc4)c3C(C1)C2 (racemic) [(±)-(Ie)•HCl, (±)-N-{4-{[(3-chloro-6,7,10,11-tetrahydro-9-methyl-7,11-methanocycloocta[b]quinolin-12-yl)amino]methyl}benzyl}-9,10-dihydro-4,5-dihydroxy-9,10-dioxoanthracene-2-carboxamide]	510 ± 20	2020 ± 400	–	35.2 ± 1.8	32.4 ± 3.6	60 ± 7.5	–	–	–
CC1=C[C@@H]2Cc3nc4cc(Cl)ccc4c(N)c3[C@H](C1)C2.Cl [(+)-Huprine Y•HCl, huprine Y, reference compound]	–	–	–	9.1 ± 3.6	13.2 ± 1.9	373 ± 50	170 ± 17	> 5000	–
CC1=C[C@@H]2Cc3nc4cc(Cl)ccc4c(N)c3[C@H](C1)C2.Cl [(−)-Huprine Y•HCl, huprine Y, reference compound]	–	–	–	24.7 ± 1.3	11.5 ± 5.2	0.06 ± 0.01	222 ± 17	> 5000	(14.0 ± 0.1% at
O=C(O)c1cc(O)c2c(c1)C(=O)c1cccc(O)c1C2=O [Rhein, rhein, reference compound]	–	–	637 ± 87	–	–	–	17000 ± 4220	–	–
huprine Y [(±)-Huprine Y•HCl, reference compound]	–	–	–	17.1 ± 4.5	–	0.08 ± 0.01	–	–	–
